What was measured:
[1] = target: T1, E. coli β-glucuronidase (eβG) (Escherichia coli, UniProt P05804); experiment: In vitro βG-activity assay (pNPG hydrolysis), eβG; assay type: biochemical; conditions: 50 μM compound, pH 7.3, percent of activity vs untreated control
T1 construct: histidine tag (N); made in house; host or cells: E. coli BL21 (DE3)
Procedure: (§1) Plasmid pRESTB containing βG gene and a histidine tag at the N-terminus was constructed as described. Recombinant βG (human and E. coli) was produced by isopropyl β-D-thiogalactopyranoside (IPTG) induction of BL21 (DE3) bacteria. βG was purified from bacterial supernatants by affinity chromatography on nickels Sepharose 6 Fast Flow (GE Healthcare). The column was washed by phosphate-buffered saline (PBS), with 50 mM imidazole, and βG was eluted by PBS with 250 mM imidazole. The purified βG was desalted on a Sephadex G-25 column equilibrated with PBS and stored at −80°C.
The candidate compounds were purchased from SPECS (The Netherlands). Each candidate was provided as a solid power and dissolved in 100% DMSO (Sigma-Aldrich) to 10 mM as stock. Candidates were screened for their inhibition specificity of eβG versus hβG, which were conducted at pH 7.3 or pH 5.4, in triplicate, respectively. 40 μL purified βG was treated with 10 μL compound solution at 37°C for 30 min and sequentially incubated with 50 μL of pNPG (Sigma-Aldrich) at 37°C for 30 min. Reactions were quenched with 5 μL of 2 N sodium hydroxide (Sigma-Aldrich). Each reaction consisted of 3.75 ng purified βG, 50 μM compound, and 5 mM pNPG in PBS containing 10% DMSO and 0.05% BSA (Sigma-Aldrich). βG-activities were measured by color development of pNP detected on a microplate reader at OD 405 nm. […] For IC50 determination, compounds at various concentrations (100 μM to 0.001 μM) were added.
Supplementary file 740815.f1.pdf: Fifty-nine candidate compounds were acquired from the initial virtually screening which was designed to target the bacterial loop of eβG and its active site. The docking energy scores of 59 candidate compounds measured by the DOCK program are -43 to -55 kcal/mol. (Table S1) The candidate compounds were purchased from SPECS (Zoetermeer, The Netherlands). Each candidate was rovided as a solid power and dissolved in 100% DMSO (Sigma-Aldrich, MO, USA) to 10 mM as stock. Candidates were screening for their inhibition specificity of eβG verse hβG, which were conducted at pH 7.3 or pH 5.4 in triplicate, respectively. 40 µL purified βG was treated with 10 µL compound solution at 37 °C for 30 min, and sequentially incubated with 50 µL of pNPG (Sigma-Aldrich) at 37 °C for 30 min. Reactions were quenched with 5 µL of 2 N sodium hydroxide (Sigma-Aldrich). Each reaction consisted of 3.75 ng purified βG, 50 µM compound, and 5 mM pNPG in PBS containing 10% DMSO and 0.05% BSA (Sigma-Aldrich). βG-activities were measured by color development of pNP detected on a microplate reader at OD 405 nm. […] Especially, the inhibiting ability against eβG activity was >95% in 7 candidates of eβG specific inhibitors (Table S1).
(§2) Fifty-nine candidate compounds were acquired from the initial virtually screening which was designed to target the bacterial loop of eβG and its active site. The docking energy scores of 59 candidate compounds measured by the DOCK program are -43 to -55 kcal/mol. (Table S1) The candidate compounds were purchased from SPECS (Zoetermeer, The Netherlands). Each candidate was provided as a solid power and dissolved in 100% DMSO (Sigma-Aldrich, MO, USA) to 10 mM as stock. Candidates were screening for their inhibition specificity of eβG verse hβG, which were conducted at pH 7.3 or pH 5.4 in triplicate, respectively. 40 μL purified βG was treated with 10 μL compound solution at 37 °C for 30 min, and sequentially incubated with 50 μL of pNPG (Sigma-Aldrich) at 37 °C for 30 min. Reactions were quenched with 5 μL of 2 N sodium hydroxide (Sigma-Aldrich). Each reaction consisted of 3.75 ng purified βG, 50 μM compound, and 5 mM pNPG in PBS containing 10% DMSO and 0.05% BSA (Sigma-Aldrich). βG-activities were measured by color development of pNP detected on a microplate reader at OD 405 nm. […]
percent of βG activity compared with the untreated control.
Especially, the inhibiting ability against eβG activity was >95% in 7 candidates of eβG specific inhibitors (Table S1).
Table S1. […]

human βG (hβG) = target: T2, human βG (hβG) (Homo sapiens, UniProt P08236); experiment: In vitro βG-activity assay (pNPG hydrolysis), hβG; assay type: biochemical; conditions: pH 5.4, percent of activity vs untreated control
T2 construct: histidine tag (N); made in house; host or cells: E. coli BL21 (DE3)
T2 sequence (P08236 23-651): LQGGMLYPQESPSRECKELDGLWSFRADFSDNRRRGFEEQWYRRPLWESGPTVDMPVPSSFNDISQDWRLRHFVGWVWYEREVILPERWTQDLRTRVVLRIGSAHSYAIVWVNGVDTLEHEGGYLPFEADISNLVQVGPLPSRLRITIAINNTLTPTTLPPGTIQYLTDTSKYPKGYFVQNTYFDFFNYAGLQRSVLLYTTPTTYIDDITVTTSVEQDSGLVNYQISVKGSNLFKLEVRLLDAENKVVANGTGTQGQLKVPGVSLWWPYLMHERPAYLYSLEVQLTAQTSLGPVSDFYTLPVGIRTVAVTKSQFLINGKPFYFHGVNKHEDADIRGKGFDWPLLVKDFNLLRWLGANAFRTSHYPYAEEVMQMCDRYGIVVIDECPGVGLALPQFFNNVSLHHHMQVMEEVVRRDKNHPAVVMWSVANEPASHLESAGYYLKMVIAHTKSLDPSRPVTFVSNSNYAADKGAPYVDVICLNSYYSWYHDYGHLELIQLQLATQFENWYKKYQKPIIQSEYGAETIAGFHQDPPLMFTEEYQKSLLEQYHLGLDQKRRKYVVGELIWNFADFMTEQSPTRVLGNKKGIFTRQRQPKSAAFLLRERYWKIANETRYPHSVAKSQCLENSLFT
Procedure: as §1
The candidate compounds were purchased from SPECS (The Netherlands). Each candidate was provided as a solid power and dissolved in 100% DMSO (Sigma-Aldrich) to 10 mM as stock. Candidates were screened for their inhibition specificity of eβG versus hβG, which were conducted at pH 7.3 or pH 5.4, in triplicate, respectively. 40 μL purified βG was treated with 10 μL compound solution at 37°C for 30 min and sequentially incubated with 50 μL of pNPG (Sigma-Aldrich) at 37°C for 30 min. Reactions were quenched with 5 μL of 2 N sodium hydroxide (Sigma-Aldrich). Each reaction consisted of 3.75 ng purified βG, 50 μM compound, and 5 mM pNPG in PBS containing 10% DMSO and 0.05% BSA (Sigma-Aldrich). βG-activities were measured by color development of pNP detected on a microplate reader at OD 405 nm.
as §2, with “(Table” for “Fifty-nine candidate compounds were acquired from the initial virtually screening which was designed to target the bacterial loop of eβG and its active site. The docking energy scores of 59 candidate compounds measured by the DOCK program are -43 to -55 kcal/mol. (Table”, “rovided” for “provided”, “µL” for “μL”, “µM” for “μM”
candidate compounds were purchased from SPECS (Zoetermeer, The Netherlands). Each candidate was provided as a solid power and dissolved in 100% DMSO (Sigma-Aldrich, MO, USA) to 10 mM as stock. Candidates were screening for their inhibition specificity of eβG verse hβG, which were conducted at pH 7.3 or pH 5.4 in triplicate, respectively. 40 μL purified βG was treated with 10 μL compound solution at 37 °C for 30 min, and sequentially incubated with 50 μL of pNPG (Sigma-Aldrich) at 37 °C for 30 min. Reactions were quenched with 5 μL of 2 N sodium hydroxide (Sigma-Aldrich). Each reaction consisted of 3.75 ng purified βG, 50 μM compound, and 5 mM pNPG in PBS containing 10% DMSO and 0.05% BSA (Sigma-Aldrich). βG-activities were measured by color development of pNP detected on a microplate reader at OD 405 nm.

T1 sequence (P05804 whole entry): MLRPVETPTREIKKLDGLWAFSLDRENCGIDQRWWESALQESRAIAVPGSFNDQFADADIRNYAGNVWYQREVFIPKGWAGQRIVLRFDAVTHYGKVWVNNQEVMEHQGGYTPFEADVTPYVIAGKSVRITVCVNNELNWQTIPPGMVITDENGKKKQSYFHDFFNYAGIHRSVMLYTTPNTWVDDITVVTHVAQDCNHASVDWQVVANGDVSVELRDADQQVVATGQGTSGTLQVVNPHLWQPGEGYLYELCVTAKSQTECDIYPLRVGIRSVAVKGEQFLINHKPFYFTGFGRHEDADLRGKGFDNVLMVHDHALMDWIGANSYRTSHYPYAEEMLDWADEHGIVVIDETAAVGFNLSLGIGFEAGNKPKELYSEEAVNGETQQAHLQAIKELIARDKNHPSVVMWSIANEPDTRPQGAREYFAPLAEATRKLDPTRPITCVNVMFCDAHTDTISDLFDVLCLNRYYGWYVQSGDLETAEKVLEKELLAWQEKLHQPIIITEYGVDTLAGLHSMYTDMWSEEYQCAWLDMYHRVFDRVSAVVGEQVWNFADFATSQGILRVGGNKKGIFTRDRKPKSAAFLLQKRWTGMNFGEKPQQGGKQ

SMILES | eβG activity (%) with 50 μM compound [1] | hβG activity (%) with 50 μM compound (human βG (hβG))
O=C1c2ccccc2C(=O)c2c1cccc2S(=O)(=O)Nc1ccc(Cl)cc1 [Compound 8074] | 22.15% | 109.09%
O=S(=O)(c1ccc(Br)cc1)N1CCNCC1 [Compound 8329] | 33.19% | 97.77%
Cc1cccc(C(=O)NC2(C(F)(F)F)C(=O)Nc3c2c(=O)[nH]c(=O)n3-c2ccc(Cl)cc2)c1 (stereo not shown) [Compound 8572] | 17.66% | 102.81%
Cc1cc(NS(=O)(=O)c2ccc(NC(=O)C(C)Oc3ccc(Cl)cc3Cl)cc2)no1 (stereo not shown) [Compound 8889] | 11.40% | 102.15%
CS(=O)(=O)CCC(C(=O)O)N1C(=O)c2ccccc2C1=O (stereo not shown) [Compound 9063] | 32.48% | 105.45%
CS(=O)(=O)c1ccc2nc(NC(=O)c3ccccc3C(=O)O)sc2c1 [Compound 9107] | 29.70% | 105.37%
COc1ccc(Cl)cc1NC(=O)CC(C(=O)O)N1CCNCC1 (stereo not shown) [Compound 9183] | 39.67% | 107.36%
CCN(CC)S(=O)(=O)c1cccc(N=Nc2c(O)[nH]c(=O)[nH]c2=O)c1 [Compound 9274] | 32.34% | 106.69%
CCN1CCN(S(=O)(=O)c2cccc(Cl)c2)CC1 [Compound 9572] | 42.66% | 106.78%
Cc1ccc2nc(CSc3nc(-c4ccncc4)ccc3C#N)[nH]c2c1 [Compound 9665] | 8.97% | 100.83%
COc1ccc2ccccc2c1CNCC1CCNCC1 [Compound 9927] | 25.00% | 113.80%
